Assay [1] deals with poly(rA)·poly(rU) (RNA, polymer) A/U. Description: UV melting. To be noted: NaCac 2.5 mM; pH 7.0; 1:1 ratio complex/polynucleotide; free Tm 47.9 °C; per base.
Assay [2] relates to poly(rU)*poly(rA)·poly(rU) (RNA, polymer) U/A/U. Description: UV melting. To be noted: NaCac 2.5 mM; pH 7.0; 1:1 ratio complex/polynucleotide; free Tm 46.9 °C; per base.
Assay [3] has as its system poly(rA)·poly(rU) (RNA, polymer) A/U. The assay is described as follows: ethidium bromide displacement fluorescence. To be noted: NaCac 2.5 mM; pH 7.0; tracer ethidium bromide; some interaction.
Assay [4] shares this test system. The assay is described as follows: UV-vis absorbance titration, HypSpec2014 fit. To be noted: NaCac 2.5 mM; pH 7.0, 25.0 °C; per base pair, site size n = 1.
Assay [5] deals with poly(rU)*poly(rA)·poly(rU) (RNA, polymer) U/A/U. Description: UV-vis absorbance titration, HypSpec2014 fit. To be noted: NaCac 2.5 mM; pH 7.0, 25.0 °C; per base triplet, site size n = 1.

Data on one compound can be found in paper PMC10410612 (2023).

As a reminder, the ΔTm is the shift of the melting midpoint relative to a reference. As for `C=[C-]c1cccc(OC(=O)c2ccccc2OC(C)=O)c1.[C-]#[O+].[C-]#[O+].[C-]#[O+].[Ru+2].[Ru+2].c1cc[cH-]c1.c1cc[cH-]c1`, the ΔTm in assay [1] is -6.5 ± 0.9 °C; in assay [2] it was 1.6 ± 0.5 °C. Besides, the binding entry in assay [3] is reported as “yes”. Further, the K entry in assay [4] is on record as “(6.0 ± 0.9) × 10^5”; in assay [5] it was “(3.1 ± 0.9) × 10^5”.
